Laboratory results reported in US11142520B2, “LDHA activity inhibitors” (ARCTIC PHARMA AS, priority 2017, dated 2021).

Experiments:
LDHA = LDHA (Homo sapiens (Human), UniProt P00338); assay: Coupled diaphorase assay, LDHA; type: biochemical; conditions: lactate to pyruvate direction, 4-7 nM LDHA
Source text: (§1) The inhibitory properties of the compounds were investigated using a coupled enzyme assay that links the lactate dehydrogenase (LDH) reaction to the production of fluorescent resorutin by diaphorase.
(§2) Human lactate dehydrogenases (LDH) catalyze the reversible interconversion between pyruvate and lactate. LDH is capable of catalyzing both the forward (pyruvate to lactate) and the reverse (lactate to pyruvate) reaction, using either NADH or NAD^+ as a cofactor. The reaction proceeds in either direction dependent on various factors, such as substrate availability, the presence of necessary cofactors, temperature and pH. Different isoforms (LDH A, B, and C) of the enzyme favor different reaction directions—LDHA prefers the conversion from pyruvate to lactate, whereas LDHB preferentially oxidizes lactate to pyruvate.
The coupled assay relies on the oxidation of NAD^+ to NADH throughout the conversion of lactate to pyruvate by LDH (isoforms A, B and C). The produced NADH serves as cofactor in the diaphorase reaction, which reduces non-fluorescent resazurin to fluorescent resorufin. Therefore, the assay indirectly monitors the rate of pyruvate production. Although the consumption of NADH can be directly monitored due to the intrinsic fluorescence of the molecule (excitation: 340 nm, emission: 460 nm) there are problems linked to the direct readout method. […] Shifting the assay to longer wavelengths by coupling the LDH reaction to the conversion of resazurin to fluorescent resorufin by diaphorase reduces this compound interference. The assay direction was thus chosen to provide a robust and reliable assay. […]
Compounds were tested in duplicates using 2-fold, 3-fold or 4-fold serial dilutions including 11 individual concentrations, starting from 5000 μM to 30 μM. […] The controls allowed for the calculation of the percentage inhibition for each data point. […] Enzyme solution leading to final concentrations of 4-7 nM LDHA or 6 nM LDHB, as well as 0.2 U/ml diaphorase in the reaction well was dispensed into 384-well plates (Greiner bio-one) using a CyBi®-SELMA robotic pipettor. Compound dilutions and the enzyme were incubated for at least 20 min at room temperature. […] The reaction was quenched by the addition of a stop solution (final concentrations: 20 mM EDTA, 400 mM NaCl, 40 mM pyruvate). Fluorescence was read out after 5 min of incubation at an excitation wavelength of 560 nm and an emission wavelength of 590 nm on a Perkin Elmer Victor X plate reader. […]
(§3) Fluorescence data was normalized to DMSO and inhibition controls resulting in percentage inhibition for every compound concentration. Dose response curves were fitted in KaleidaGraph (www.synergy.com) or Dotmatics software package (www.dotmatics.com) using a standard 4-parameter fit (Levenberg-Marquardt fitting procedure), resulting in IC50 values for the test compounds.

LDHB = LDHB (Homo sapiens (Human), UniProt P07195); assay: Coupled diaphorase assay, LDHB; type: biochemical; conditions: lactate to pyruvate direction, 6 nM LDHB
Source text: as §1, §2
The coupled assay relies on the oxidation of NAD^+ to NADH throughout the conversion of lactate to pyruvate by LDH (isoforms A, B and C). The produced NADH serves as cofactor in the diaphorase reaction, which reduces non-fluorescent resazurin to fluorescent resorufin. Therefore, the assay indirectly monitors the rate of pyruvate production. Although the consumption of NADH can be directly monitored due to the intrinsic fluorescence of the molecule (excitation: 340 nm, emission: 460 nm) there are problems linked to the direct readout method. […] Shifting the assay to longer wavelengths by coupling the LDH reaction to the conversion of resazurin to fluorescent resorufin by diaphorase reduces this compound interference. The assay direction was thus chosen to provide a robust and reliable assay.
Applying the LDHA reaction in the preferred direction for the conversion of pyruvate to lactate under oxidation of NADH to NAD^+ would necessitate running the LDHA reaction to about 80% completion and adding the diaphorase assay reagents afterwards in order to avoid enzyme competition for NADH.
The controls allowed for the calculation of the percentage inhibition for each data point. […] Enzyme solution leading to final concentrations of 4-7 nM LDHA or 6 nM LDHB, as well as 0.2 U/ml diaphorase in the reaction well was dispensed into 384-well plates (Greiner bio-one) using a CyBi®-SELMA robotic pipettor. Compound dilutions and the enzyme were incubated for at least 20 min at room temperature. […] The reaction was quenched by the addition of a stop solution (final concentrations: 20 mM EDTA, 400 mM NaCl, 40 mM pyruvate). Fluorescence was read out after 5 min of incubation at an excitation wavelength of 560 nm and an emission wavelength of 590 nm on a Perkin Elmer Victor X plate reader. […]
as §3

LDHB, sequence (P07195 whole entry): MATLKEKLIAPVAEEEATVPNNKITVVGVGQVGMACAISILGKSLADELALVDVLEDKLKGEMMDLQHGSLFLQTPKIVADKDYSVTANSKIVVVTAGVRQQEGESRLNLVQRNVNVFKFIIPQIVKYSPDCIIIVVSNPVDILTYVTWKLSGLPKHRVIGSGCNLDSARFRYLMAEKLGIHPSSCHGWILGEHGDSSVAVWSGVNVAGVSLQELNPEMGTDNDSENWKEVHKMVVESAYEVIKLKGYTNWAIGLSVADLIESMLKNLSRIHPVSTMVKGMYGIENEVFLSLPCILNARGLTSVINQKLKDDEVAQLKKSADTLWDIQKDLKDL

IC50 (LDHA) [µM]	IC50 (LDHB) [µM]	SMILES
10 to 50		COCCOC(=O)OC1=C(Sc2cc(Cl)ccc2Cl)C(=O)NC(c2ccc(N3CCOCC3)cc2)(c2ccsc2)C1 (racemic) [Example 17, 5-((2,5-dichlorophenyl)thio)-2-(4-morpholinophenyl)-6-oxo-2-(thiophen-3-yl)-1,2,3,6-tetrahydropyridin-4-yl (2-methoxyethyl) carbonate]
0.5 to 10		O=C1CC(c2ccc(N3CCOCC3)cc2)(c2ccsc2)NC(=O)C1Sc1cc(Cl)ccc1Cl (single isomer, unassigned) [Example 10 Enantiomer 1]
10 to 50		O=C1CC(c2ccc(N3CCOCC3)cc2)(c2ccsc2)NC(=O)C1Sc1cc(Cl)ccc1Cl (single isomer, unassigned) [Example 10 Enantiomer 2]
10 to 50		COCCOC(=O)OC1=C(Sc2cc(Cl)ccc2Cl)C(=O)NC(c2ccc(N3CCOCC3)cc2)(c2ccsc2)C1 (single isomer, unassigned) [Example 17 Enantiomer 1]
0.5 to 10		COCCOC(=O)OC1=C(Sc2cc(Cl)ccc2Cl)C(=O)NC(c2ccc(N3CCOCC3)cc2)(c2ccsc2)C1 (single isomer, unassigned) [Example 17 Enantiomer 2]
10 to 50	> 100	O=C1CC(c2ccsc2)(c2cccc(OCC3CCCC3)n2)NC(=O)C1Sc1ccc(Cl)cc1Cl (centres unmarked) [Example 1, 6-[6-(cyclopentylmethoxy)pyridin-2-yl]-3-[(2,4-dichlorophenyl)sulfanyl]-6-(thiophen-3-yl)piperidine-2,4-dione]
10 to 50	> 100	O=C1CC(c2ccsc2)(c2cccc(Br)n2)NC(=O)C1Sc1ccc(F)cc1Cl (centres unmarked) [Example 2, 6-(6-bromopyridin-2-yl)-3-[(2-chloro-4-fluorophenyl)sulfanyl]-6-(thiophen-3-yl)piperidine-2,4-dione]
10 to 50	> 100	CCOc1cccc(C2(c3ccsc3)CC(=O)C(Sc3ccc(F)cc3Cl)C(=O)N2)n1 (centres unmarked) [Example 4, 3-((2-chloro-4-fluorophenyl)thio)-6-(6-ethoxypyridin-2-yl)-6-(thiophen-3-yl)piperidine-2,4-dione]
> 100	> 100	O=C1CC(c2ccsc2)(c2cccc(Br)n2)NC(=O)C1Sc1cccc(Cl)c1Cl (centres unmarked) [Example 6, 6-(6-bromopyridin-2-yl)-3-[(2,3-dichlorophenyl)sulfanyl]-6-(thiophen-3-yl)piperidine-2,4-dione]
10 to 50	> 100	O=C1CC(c2ccsc2)(c2cccc(OCC3CCCC3)n2)NC(=O)C1Sc1cccc(Cl)c1Cl (centres unmarked) [Example 7, 6-[6-(cyclopentylmethoxy)pyridin-2-yl]-3-[(2,3-dichlorophenyl)sulfanyl]-6-(thiophen-3-yl)piperidine-2,4-dione]
0.1 to 0.5	0.1 to 0.5	O=C1CC(c2ccc(N3CCOCC3)cc2)(c2ccsc2)NC(=O)C1Sc1ccc(F)cc1Cl (centres unmarked) [Example 8, 3-((2-chloro-4-fluorophenyl)thio)-6-(4-morpholinophenyl)-6-(thiophen-3-yl)piperidine-2,4-dione]
0.5 to 10	> 100	O=C1CC(c2ccc(N3CCOCC3)cc2)(c2ccsc2)NC(=O)C1Sc1cccc(Cl)c1Cl (centres unmarked) [Example 9, 3-((2,3-dichlorophenyl)thio)-6-(4-morpholinophenyl)-6-(thiophen-3-yl)piperidine-2,4-dione]
> 100	> 100	CCOC(=O)OC1=C(Sc2ccc(F)cc2Cl)C(=O)NC(c2ccsc2)(c2cccc(OCC3CCCC3)n2)C1 (centres unmarked) [Example 11, 5-[(2-chloro-4-fluorophenyl)sulfanyl]-2-[6-(cyclopentylmethoxy)pyridin-2-yl]-6-oxo-2-(thiophen-3-yl)-1,2,3,6-tetrahydropyridin-4-yl ethyl carbonate]
> 100	> 100	COC(=O)OC1=C(Sc2cccc(Cl)c2Cl)C(=O)NC(c2ccsc2)(c2cccc(OCC3CCCC3)n2)C1 (centres unmarked) [Example 12, 6′-(cyclopentylmethoxy)-5-((2,3-dichlorophenyl)thio)-6-oxo-2-(thiophen-3-yl)-1,2,3,6-tetrahydro-[2,2′-bipyridin]-4-yl methyl carbonate]
> 100		CCCCCCCCCCOC(=O)OC1=C(Sc2cc(Cl)ccc2Cl)C(=O)NC(c2ccsc2)(c2cccc(OCC3CCCC3)n2)C1 (centres unmarked) [Example 16, 6′-(cyclopentylmethoxy)-5-((2,5-dichlorophenyl)thio)-6-oxo-2-(thiophen-3-yl)-1,2,3,6-tetrahydro-[2,2′-bipyridin]-4-yl decyl carbonate]
0.5 to 10		O=C1CC(c2cncnc2)(c2ccsc2)OC(=O)C1Sc1ccccc1Cl (centres unmarked) [Example 19, 3-((2-chlorophenyl)thio)-6-(pyrimidin-5-yl)-6-(thiophen-3-yl)dihydro-2H-pyran-2,4(3H)-dione]
10 to 50		COC(=O)OC1=C(Sc2ccccc2Cl)C(=O)OC(c2ccsc2)(c2ccc(Br)cn2)C1 (centres unmarked) [Example 21, 2-(5-bromopyridin-2-yl)-5-((2-chlorophenyl)thio)-6-oxo-2-(thiophen-3-yl)-3,6-dihydro-2H-pyran-4-yl methyl carbonate]
50 to 100		CC(C)COC(=O)OC1=C(Sc2cc(Cl)ccc2Cl)C(=O)NC(c2ccc(N3CCOCC3)cc2)(c2ccsc2)C1 (centres unmarked) [Example 26, 5-((2,5-dichlorophenyl)thio)-2-(4-morpholinophenyl)-6-oxo-2-(thiophen-3-yl)-1,2,3,6-tetrahydropyridin-4-yl isobutyl carbonate]
10 to 50		CC(=O)OC1=C(Sc2cc(Cl)ccc2Cl)C(=O)NC(c2ccc(N3CCOCC3)cc2)(c2ccsc2)C1 (centres unmarked) [Example 27, 5-((2,5-dichlorophenyl)thio)-2-(4-morpholinophenyl)-6-oxo-2-(thiophen-3-yl)-1,2,3,6-tetrahydropyridin-4-yl acetate]
10 to 50		CC(C)(C)C(=O)OC1=C(Sc2cc(Cl)ccc2Cl)C(=O)NC(c2ccc(N3CCOCC3)cc2)(c2ccsc2)C1 (centres unmarked) [Example 28, 5-((2,5-dichlorophenyl)thio)-2-(4-morpholinophenyl)-6-oxo-2-(thiophen-3-yl)-1,2,3,6-tetrahydropyridin-4-yl pivalate]
0.5 to 10		O=C1NC(c2ccc(N3CCOCC3)cc2)(c2ccsc2)CC(OC(=O)c2ccncc2)=C1Sc1cc(Cl)ccc1Cl (centres unmarked) [Example 31, 5-((2,5-dichlorophenyl)thio)-2-(4-morpholinophenyl)-6-oxo-2-(thiophen-3-yl)-1,2,3,6-tetrahydropyridin-4-yl isonicotinate]
> 100		COCCOC(=O)OC1=C(Sc2cc(Cl)ccc2Cl)C(=O)NC(c2ccsc2)(c2cccc(OCC3CCCC3)n2)C1 (centres unmarked) [Example 34, 6′-(cyclopentylmethoxy)-5-((2,5-dichlorophenyl)thio)-6-oxo-2-(thiophen-3-yl)-1,2,3,6-tetrahydro-[2,2′-bipyridin]-4-yl (2-methoxyethyl) carbonate]
10 to 50		COCCOC(=O)OC1=C(Sc2ccccc2Cl)C(=O)OC(c2cnc(N3CCOCC3)nc2)(c2ccsc2)C1 (centres unmarked) [Example 35, 5-((2-chlorophenyl)thio)-2-(2-morpholinopyrimidin-5-yl)-6-oxo-2-(thiophen-3-yl)-3,6-dihydro-2H-pyran-4-yl (2-methoxyethyl) carbonate]
